Test results published in patent publication US9669003B2, “Use of flavone and flavanone derivatives in preparation of sedative and hypnotic drugs” (priority 2012, dated 2017).
Marks after values point to notes of the source that are not given here.

The compounds below were run on Kunming mice (assay: Influence on autonomic activity of normal mice (ZIL-2 mice autonomic activity meter, counts within 10 min)). Conditions: intragastric, 25 mg/kg, 1 h after administration, x ± s, n = 10.
Assay type: in vivo
Method in brief: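 Activity counts during a 10-min window were taken at 1, 2 and 24 h after dosing in groups of 10 mixed-sex Kunming mice. Compounds were given in 0.5% CMC-Na at 25, 50 or 100 mg/kg. Statistics used Levene's homogeneity test, ANOVA and Dunnett's multiple comparisons.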

| SMILES | Times of activities in 1 h after drug administration/10 min |
| --- | --- |
| COc1cc(OC)c2c(c1)OC(c1cc(OC)c(OC)c(OC)c1)CC2=O (stereo not drawn) [Example 46, 5,7,3′,4′,5′-penta methoxyl-flavanone] | 300.8 ± 49.2 /10 min |
| CCCc1cc2c(=O)cc(-c3ccc(C(=O)O)c(C(N)=O)c3)oc2c(I)c1CCS(=O)(=O)O [Example 35] | 336.84 ± 57.8 /10 min |
| O=c1cc(-c2cc(O)c(Oc3ccccc3)c(CCCCCCCCCCCCCCCCCCCCCl)c2)oc2cc(C#Cc3ccccc3)cc([N+](=O)[O-])c12 [Example 16] | 319.2 ± 55.4 /10 min |

Same assay, conditions: intragastric, 25 mg/kg, 2 h after administration, x ± s, n = 10

| SMILES | Times of activities in 2 h after drug administration/10 min |
| --- | --- |
| COc1cc(OC)c2c(c1)OC(c1cc(OC)c(OC)c(OC)c1)CC2=O (stereo not drawn) [Example 46, 5,7,3′,4′,5′-penta methoxyl-flavanone] | 299.2 ± 38.9 /10 min |
| CCCc1cc2c(=O)cc(-c3ccc(C(=O)O)c(C(N)=O)c3)oc2c(I)c1CCS(=O)(=O)O [Example 35] | 278.8 ± 49.0 /10 min |
| O=c1cc(-c2cc(O)c(Oc3ccccc3)c(CCCCCCCCCCCCCCCCCCCCCl)c2)oc2cc(C#Cc3ccccc3)cc([N+](=O)[O-])c12 [Example 16] | 290.6 ± 41.2 /10 min |

Same assay, conditions: intragastric, 25 mg/kg, 24 h after administration, x ± s, n = 10

| SMILES | Times of activities in 24 h after drug administration/10 min |
| --- | --- |
| COc1cc(OC)c2c(c1)OC(c1cc(OC)c(OC)c(OC)c1)CC2=O (stereo not drawn) [Example 46, 5,7,3′,4′,5′-penta methoxyl-flavanone] | 275.4 ± 81.3 /10 min |
| CCCc1cc2c(=O)cc(-c3ccc(C(=O)O)c(C(N)=O)c3)oc2c(I)c1CCS(=O)(=O)O [Example 35] | 307.4 ± 69.8 /10 min |
| O=c1cc(-c2cc(O)c(Oc3ccccc3)c(CCCCCCCCCCCCCCCCCCCCCl)c2)oc2cc(C#Cc3ccccc3)cc([N+](=O)[O-])c12 [Example 16] | 313.5 ± 68.2 /10 min |

Same assay, conditions: intragastric, 50 mg/kg, 1 h after administration, x ± s, n = 10

| SMILES | Times of activities in 1 h after drug administration/10 min |
| --- | --- |
| COc1cc(OC)c2c(c1)OC(c1cc(OC)c(OC)c(OC)c1)CC2=O (stereo not drawn) [Example 46, 5,7,3′,4′,5′-penta methoxyl-flavanone] | 264.4 ± 41.3 /10 min |
| CCCc1cc2c(=O)cc(-c3ccc(C(=O)O)c(C(N)=O)c3)oc2c(I)c1CCS(=O)(=O)O [Example 35] | 310.3 ± 48.9 /10 min |
| O=c1cc(-c2cc(O)c(Oc3ccccc3)c(CCCCCCCCCCCCCCCCCCCCCl)c2)oc2cc(C#Cc3ccccc3)cc([N+](=O)[O-])c12 [Example 16] | 295.5 ± 41.3 /10 min |

Same assay, conditions: intragastric, 50 mg/kg, 2 h after administration, x ± s, n = 10

| SMILES | Times of activities in 2 h after drug administration/10 min |
| --- | --- |
| COc1cc(OC)c2c(c1)OC(c1cc(OC)c(OC)c(OC)c1)CC2=O (stereo not drawn) [Example 46, 5,7,3′,4′,5′-penta methoxyl-flavanone] | 254.1 ± 53.2 /10 min |
| CCCc1cc2c(=O)cc(-c3ccc(C(=O)O)c(C(N)=O)c3)oc2c(I)c1CCS(=O)(=O)O [Example 35] | 244.8 ± 39.6 /10 min |
| O=c1cc(-c2cc(O)c(Oc3ccccc3)c(CCCCCCCCCCCCCCCCCCCCCl)c2)oc2cc(C#Cc3ccccc3)cc([N+](=O)[O-])c12 [Example 16] | 250.4 ± 41.4 /10 min |

Same assay, conditions: intragastric, 50 mg/kg, 24 h after administration, x ± s, n = 10

| SMILES | Times of activities in 24 h after drug administration/10 min |
| --- | --- |
| COc1cc(OC)c2c(c1)OC(c1cc(OC)c(OC)c(OC)c1)CC2=O (stereo not drawn) [Example 46, 5,7,3′,4′,5′-penta methoxyl-flavanone] | 284.7 ± 78.7 /10 min |
| CCCc1cc2c(=O)cc(-c3ccc(C(=O)O)c(C(N)=O)c3)oc2c(I)c1CCS(=O)(=O)O [Example 35] | 308.1 ± 954 /10 min |
| O=c1cc(-c2cc(O)c(Oc3ccccc3)c(CCCCCCCCCCCCCCCCCCCCCl)c2)oc2cc(C#Cc3ccccc3)cc([N+](=O)[O-])c12 [Example 16] | 314.1 ± 82.3 /10 min |

Same assay, conditions: intragastric, 100 mg/kg, 1 h after administration, x ± s, n = 10

| SMILES | Times of activities in 1 h after drug administration/10 min |
| --- | --- |
| COc1cc(OC)c2c(c1)OC(c1cc(OC)c(OC)c(OC)c1)CC2=O (stereo not drawn) [Example 46, 5,7,3′,4′,5′-penta methoxyl-flavanone] | 176.8 ± 43.2 /10 min |
| CCCc1cc2c(=O)cc(-c3ccc(C(=O)O)c(C(N)=O)c3)oc2c(I)c1CCS(=O)(=O)O [Example 35] | 266.8 ± 50.1 /10 min |
| O=c1cc(-c2cc(O)c(Oc3ccccc3)c(CCCCCCCCCCCCCCCCCCCCCl)c2)oc2cc(C#Cc3ccccc3)cc([N+](=O)[O-])c12 [Example 16] | 273.4 ± 48.3 /10 min |

Same assay, conditions: intragastric, 100 mg/kg, 2 h after administration, x ± s, n = 10

| SMILES | Times of activities in 2 h after drug administration/10 min |
| --- | --- |
| COc1cc(OC)c2c(c1)OC(c1cc(OC)c(OC)c(OC)c1)CC2=O (stereo not drawn) [Example 46, 5,7,3′,4′,5′-penta methoxyl-flavanone] | 163.4 ± 36.5 /10 min |
| CCCc1cc2c(=O)cc(-c3ccc(C(=O)O)c(C(N)=O)c3)oc2c(I)c1CCS(=O)(=O)O [Example 35] | 219.6 ± 47.7 /10 min |
| O=c1cc(-c2cc(O)c(Oc3ccccc3)c(CCCCCCCCCCCCCCCCCCCCCl)c2)oc2cc(C#Cc3ccccc3)cc([N+](=O)[O-])c12 [Example 16] | 224.7 ± 46.3 /10 min |

Same assay, conditions: intragastric, 100 mg/kg, 24 h after administration, x ± s, n = 10

| SMILES | Times of activities in 24 h after drug administration/10 min |
| --- | --- |
| COc1cc(OC)c2c(c1)OC(c1cc(OC)c(OC)c(OC)c1)CC2=O (stereo not drawn) [Example 46, 5,7,3′,4′,5′-penta methoxyl-flavanone] | 294.4 ± 67.5 /10 min |
| CCCc1cc2c(=O)cc(-c3ccc(C(=O)O)c(C(N)=O)c3)oc2c(I)c1CCS(=O)(=O)O [Example 35] | 321.5 ± 72.9 /10 min |
| O=c1cc(-c2cc(O)c(Oc3ccccc3)c(CCCCCCCCCCCCCCCCCCCCCl)c2)oc2cc(C#Cc3ccccc3)cc([N+](=O)[O-])c12 [Example 16] | 324.7 ± 79.7 /10 min |

Each compound was assayed on Kunming mice (assay: Influence on hypnosis effect with pentobarbital sodium doses at the threshold (50 mg/kg i.p.)). Conditions: 25 mg/kg intragastric single dose, pentobarbital sodium 50 mg/kg i.p. 60 min later, x ± s, n = 10.
Assay type: in vivo
Method in brief: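 Pentobarbital sodium (0.3%, 50 mg/kg i.p.) injected 60 min after a single intragastric dose (25, 50, 100 mg/kg, 0.5% CMC-Na vehicle) in Kunming mice, 10 per group, sexes balanced. Onset and length of sleep (righting reflex lost over 1 min) analysed by ANOVA; sleeping incidence by χ2 test.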

| SMILES | duration of sleep [min] | time to sleep [min] |
| --- | --- | --- |
| COc1cc(OC)c2c(c1)OC(c1cc(OC)c(OC)c(OC)c1)CC2=O (stereo not drawn) [Example 46, 5,7,3′,4′,5′-penta methoxyl-flavanone] | 27.80 ± 23.24 | 5.52 ± 2.31 |
| CCCc1cc2c(=O)cc(-c3ccc(C(=O)O)c(C(N)=O)c3)oc2c(I)c1CCS(=O)(=O)O [Example 35] | 38.25 ± 15.16 | 4.35 ± 1.42 |
| O=c1cc(-c2cc(O)c(Oc3ccccc3)c(CCCCCCCCCCCCCCCCCCCCCl)c2)oc2cc(C#Cc3ccccc3)cc([N+](=O)[O-])c12 [Example 16] | 25.69 ± 27.26 | 5.48 ± 2.25 |

Same assay, conditions: 50 mg/kg intragastric single dose, pentobarbital sodium 50 mg/kg i.p. 60 min later, x ± s, n = 10

| SMILES | duration of sleep [min] | time to sleep [min] |
| --- | --- | --- |
| COc1cc(OC)c2c(c1)OC(c1cc(OC)c(OC)c(OC)c1)CC2=O (stereo not drawn) [Example 46, 5,7,3′,4′,5′-penta methoxyl-flavanone] | 47.16 ± 23.51 | 4.22 ± 1.23 |
| CCCc1cc2c(=O)cc(-c3ccc(C(=O)O)c(C(N)=O)c3)oc2c(I)c1CCS(=O)(=O)O [Example 35] | 57.54 ± 28.39 | 3.88 ± 1.16 |
| O=c1cc(-c2cc(O)c(Oc3ccccc3)c(CCCCCCCCCCCCCCCCCCCCCl)c2)oc2cc(C#Cc3ccccc3)cc([N+](=O)[O-])c12 [Example 16] | 48.11 ± 25.41 | 4.21 ± 1.53 |

Same assay, conditions: 100 mg/kg intragastric single dose, pentobarbital sodium 50 mg/kg i.p. 60 min later, x ± s, n = 10

| SMILES | duration of sleep [min] | time to sleep [min] |
| --- | --- | --- |
| COc1cc(OC)c2c(c1)OC(c1cc(OC)c(OC)c(OC)c1)CC2=O (stereo not drawn) [Example 46, 5,7,3′,4′,5′-penta methoxyl-flavanone] | 55.58 ± 20.72 | 3.96 ± 2.45 |
| CCCc1cc2c(=O)cc(-c3ccc(C(=O)O)c(C(N)=O)c3)oc2c(I)c1CCS(=O)(=O)O [Example 35] | 58.38 ± 26.82 | 3.76 ± 1.49 |
| O=c1cc(-c2cc(O)c(Oc3ccccc3)c(CCCCCCCCCCCCCCCCCCCCCl)c2)oc2cc(C#Cc3ccccc3)cc([N+](=O)[O-])c12 [Example 16] | 55.62 ± 19.72 | 3.86 ± 1.45 |

What follows are compounds tested on Kunming mice (assay: Influence on hypnosis effect with pentobarbital sodium doses below the threshold (25 mg/kg i.p.)). Conditions: test drug 25 mg/kg intragastric single dose, pentobarbital sodium 25 mg/kg i.p. 60 min later, sleep observed in 30 min, n = 10.
Assay type: in vivo
Method in brief: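 Percentage of mice sleeping within 30 min after subthreshold pentobarbital sodium (25 mg/kg i.p.), defined by loss of righting reflex over 1 min, analysed by χ2. Compound in 0.5% CMC-Na given intragastrically at 25/50/100 mg/kg 60 min before; groups of 10 Kunming mice, both sexes.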

| SMILES | Number of sleeping animals | rate of sleeping (%) |
| --- | --- | --- |
| COc1cc(OC)c2c(c1)OC(c1cc(OC)c(OC)c(OC)c1)CC2=O (stereo not drawn) [Example 46, 5,7,3′,4′,5′-penta methoxyl-flavanone] | 3 | 30% |
| CCCc1cc2c(=O)cc(-c3ccc(C(=O)O)c(C(N)=O)c3)oc2c(I)c1CCS(=O)(=O)O [Example 35] | 4 | 40* % |
| O=c1cc(-c2cc(O)c(Oc3ccccc3)c(CCCCCCCCCCCCCCCCCCCCCl)c2)oc2cc(C#Cc3ccccc3)cc([N+](=O)[O-])c12 [Example 16] | 2 | 20% |

Same assay, conditions: test drug 50 mg/kg intragastric single dose, pentobarbital sodium 25 mg/kg i.p. 60 min later, sleep observed in 30 min, n = 10

| SMILES | Number of sleeping animals | rate of sleeping (%) |
| --- | --- | --- |
| COc1cc(OC)c2c(c1)OC(c1cc(OC)c(OC)c(OC)c1)CC2=O (stereo not drawn) [Example 46, 5,7,3′,4′,5′-penta methoxyl-flavanone] | 6 | 60** % |
| CCCc1cc2c(=O)cc(-c3ccc(C(=O)O)c(C(N)=O)c3)oc2c(I)c1CCS(=O)(=O)O [Example 35] | 6 | 60** % |
| O=c1cc(-c2cc(O)c(Oc3ccccc3)c(CCCCCCCCCCCCCCCCCCCCCl)c2)oc2cc(C#Cc3ccccc3)cc([N+](=O)[O-])c12 [Example 16] | 4 | 40* % |

Same assay, conditions: test drug 100 mg/kg intragastric single dose, pentobarbital sodium 25 mg/kg i.p. 60 min later, sleep observed in 30 min, n = 10

| SMILES | Number of sleeping animals | rate of sleeping (%) |
| --- | --- | --- |
| COc1cc(OC)c2c(c1)OC(c1cc(OC)c(OC)c(OC)c1)CC2=O (stereo not drawn) [Example 46, 5,7,3′,4′,5′-penta methoxyl-flavanone] | 7 | 70** % |
| CCCc1cc2c(=O)cc(-c3ccc(C(=O)O)c(C(N)=O)c3)oc2c(I)c1CCS(=O)(=O)O [Example 35] | 7 | 70** % |
| O=c1cc(-c2cc(O)c(Oc3ccccc3)c(CCCCCCCCCCCCCCCCCCCCCl)c2)oc2cc(C#Cc3ccccc3)cc([N+](=O)[O-])c12 [Example 16] | 6 | 60** % |
